Assays:
LZK = LZK (Homo sapiens (Human), UniProt O43283); experiment: LZK biochemical assay (TR-FRET, MKK7 phosphorylation)
Description: LZK assay is a biochemical assay format designed to screen for inhibitors of LZK. Enzymatic activity of LZK was measured by monitoring phosphorylation of the physiological substrate MKK7 (MAP2K7, Dual specificity mitogen-activated protein kinase kinase 7). Phosphorylation was detected by a TR-FRET system whereby His-tagged MKK7 was labeled by a XL665-labeled anti-His antibody (FRET acceptor, emission 665 nm). LZK phosphorylates MKK7 at T275/S277 which were detected by an Eu-labeled anti-phospho-MKK7 (T275/S277) antibody (FRET donor, excitation 340 nm). Phosphorylation of MKK7 results in an increased TR-FRET signal (Ratio XL665-channel/Eu-channel) and inhibition of enzymatic activity of LZK decreases the TR-FRET signal.
Assay Protocol for 384 low volume MTP format: 1 μl of test compound was pipetted into test plate; +5 μl LZK solution (10 nM LZK, catalytic domain, Carna Biosiences in assay buffer); +5 μl substrate solution (15 nM MKK7, LDB; 15 μM ATP, in assay buffer); 90 min incubation at RT; +5 μl detection mix (20 nM XL665-labeled anti-His antibody, Cisbio; 0.4 nM Eu-labeled anti-phospho-MKK7 (T275/S277), Cisbio/Millipore in detection buffer), 16 h incubation at 32° C.; endpoint measurement BMG (HTRF).
(§1) All indicated concentrations final concentrations.
Assay buffer (384 format): 50 mM Hepes pH 7.5, 10 mM MgCl2, 1 mM EGTA, 1 mM DTT, 0.01% Triton X-100, 0.01% BSA, 1:500 Smart Block.
(§2) Detection buffer: 25 mM Tris/HCl pH 7.5, 100 mM EDTA, 100 mM NaCl, 200 mM KF, 0.01% Tween 20, 1:500 Smart Block.

DLK = DLK (Homo sapiens (Human), UniProt Q12852); experiment: DLK biochemical assay (TR-FRET, MKK7 phosphorylation)
Description: DLK assay is a biochemical assay format designed to screen for inhibitors of DLK. Enzymatic activity of DLK was measured by monitoring phosphorylation of the physiological substrate MKK7 (MAP2K7, Dual specificity mitogen-activated protein kinase kinase 7). Phosphorylation was detected by a TR-FRET system whereby His-tagged MKK7 was labeled by a XL665-labeled anti-His antibody (FRET acceptor, emission 665 nm). DLK phosphorylates MKK7 at T275/S277, which was detected by an Eu-labeled anti-phospho-MKK7 (T275/S277) antibody (F RET donor, excitation 340 nm). Phosphorylation of MKK7 results in an increased TR-FRET signal (Ratio XL665-channel/Eu-channel) and inhibition of enzymatic activity of DLK decreases the TR-FRET signal.
Assay Protocol for 1536 MTP format: test compounds were predispensed (60 nl) in test plates; +3 μl DLK solution (10 nM DLK, catalytic domain, Carna Biosiences, 0.6 mM DTT in assay buffer); +2 μl substrate solution (15 nM MKK7, LDB; 60 μM ATP; 0.4 mM DTT in assay buffer); 90 min incubation at RT; +2 μl detection mix (5 nM XL665-labeled anti-His antibody, Cisbio; 0.1 nM Eu-labeled anti-phospho-MKK7 (T275/S277), Cisbio/Millipore in detection buffer); 16 h incubation at 37° C.; endpoint measurement BMG (HTRF).
Assay Protocol for 384 low volume MTP format: 1 μl of test compounds were pipetted into test plate; +5 μl DLK solution (10 nM DLK, catalytic domain, Carna Biosiences in assay buffer); +5 μl substrate solution (15 nM MKK7, LDB; 60 μM ATP, in assay buffer); 90 min incubation at RT; +9 μl detection mix (20 nM XL665-labeled anti-His antibody, Cisbio; 0.4 nM Eu-labeled anti-phospho-MKK7 (T275/S277), Cisbio/Millipore in detection buffer); 16 h incubation at 4° C.; endpoint measurement BMG (HTRF).
as §1
Assay buffer (384 format): 50 mM Hepes pH 7.5, 10 mM MgCl2, 1 mM EGTA, 1 mM DTT, 0,01% Triton X-100, 0.01% BSA, 1:500 Smart Block.
as §2

LZK, sequence (O43283 168-409): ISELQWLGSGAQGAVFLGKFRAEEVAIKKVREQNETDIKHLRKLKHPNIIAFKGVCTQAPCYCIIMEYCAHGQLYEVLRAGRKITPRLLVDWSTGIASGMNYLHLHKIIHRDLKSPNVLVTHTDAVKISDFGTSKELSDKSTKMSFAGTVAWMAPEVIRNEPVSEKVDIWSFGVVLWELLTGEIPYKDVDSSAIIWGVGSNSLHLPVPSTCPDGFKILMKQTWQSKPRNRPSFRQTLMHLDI
DLK, sequence (Q12852 1-520): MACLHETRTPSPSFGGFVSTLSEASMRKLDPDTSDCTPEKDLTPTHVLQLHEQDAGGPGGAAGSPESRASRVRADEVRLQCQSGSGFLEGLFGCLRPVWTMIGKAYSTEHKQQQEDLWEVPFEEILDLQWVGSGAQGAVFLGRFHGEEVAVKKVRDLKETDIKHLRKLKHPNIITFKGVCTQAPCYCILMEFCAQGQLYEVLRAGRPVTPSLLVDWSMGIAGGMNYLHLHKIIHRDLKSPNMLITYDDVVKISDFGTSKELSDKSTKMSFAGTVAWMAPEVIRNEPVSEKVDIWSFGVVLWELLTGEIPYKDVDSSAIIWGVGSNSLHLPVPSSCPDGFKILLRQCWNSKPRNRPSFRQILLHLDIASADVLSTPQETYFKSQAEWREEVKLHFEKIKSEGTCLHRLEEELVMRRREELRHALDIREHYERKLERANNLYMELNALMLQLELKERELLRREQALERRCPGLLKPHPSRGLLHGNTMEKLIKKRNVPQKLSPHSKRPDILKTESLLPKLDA

Compound | IC50 (LZK) | IC50 (DLK)
Nc1nc2c(C(=O)NC3CCC3)cc(-c3csc(C(=O)NCc4ccccc4)c3)cn2n1 [Compound 52] | 235 nM | 20.5 nM
Nc1nc2c(C(=O)NCC(F)(F)F)cc(-c3csc(C(=O)NCc4ccccc4)c3)cn2n1 [Compound 53] | 6100 nM | 280 nM
Nc1nc2c(C(=O)NC3CC3)cc(-c3csc(C(=O)NCc4ccccc4)c3)cn2n1 [Compound 56] | 2300 nM | 120 nM
Nc1nc2c(C(=O)NC3CCC3)cc(-c3csc(C(=O)NCc4ccc(F)cc4)c3)cn2n1 [Compound 58] | 330 nM | 29.5 nM
C[C@H](NC(=O)c1cc(-c2cc(C(=O)NC3CCC3)c3nc(N)nn3c2)cs1)c1ccccc1 [Compound 59] | 255 nM | 4.35 nM
C[C@H](NC(=O)c1cc(-c2cc(C(=O)NC3CCC3)c3nc(N)nn3c2)cs1)c1ccc(F)cc1 [Compound 60] | 295 nM | 5.25 nM
Nc1nc2c(C(=O)NCC(F)(F)F)cc(-c3csc(C(=O)NCc4ccc(F)cc4)c3)cn2n1 [Compound 61] | 3700 nM | 570 nM
C[C@H](NC(=O)c1cc(-c2cc(C(=O)NCC(F)(F)F)c3nc(N)nn3c2)cs1)c1ccccc1 [Compound 62] | 10000 nM | 120 nM
C[C@H](NC(=O)c1cc(-c2cc(C(=O)NCC(F)(F)F)c3nc(N)nn3c2)cs1)c1ccc(F)cc1 [Compound 63] | 4600 nM | 120 nM
Nc1nc2c(C(=O)NC3COC3)cc(-c3csc(C(=O)NCc4ccccc4)c3)cn2n1 [Compound 64] | 7000 nM | 200 nM
C[C@H](NC(=O)c1cc(-c2cc(C(=O)NC3COC3)c3nc(N)nn3c2)cs1)c1ccccc1 [Compound 65] | 19000 nM | 100 nM
COC[C@H](C)NC(=O)c1cc(-c2csc(C(=O)NCc3ccccc3)c2)cn2nc(N)nc12 [Compound 67] | 1700 nM | 200 nM
COC[C@H](C)NC(=O)c1cc(-c2csc(C(=O)NCc3ccc(F)cc3)c2)cn2nc(N)nc12 [Compound 68] | 1600 nM | 300 nM
COC[C@H](C)NC(=O)c1cc(-c2csc(C(=O)N[C@@H](C)c3ccc(F)cc3)c2)cn2nc(N)nc12 [Compound 69] | 1100 nM | 60 nM
COC[C@H](C)NC(=O)c1cc(-c2csc(C(=O)N[C@@H](C)c3ccccc3)c2)cn2nc(N)nc12 [Compound 70] | 1400 nM | 76 nM
Nc1nc2c(C(=O)NC3COC3)cc(-c3csc(C(=O)NCc4ccc(F)cc4)c3)cn2n1 [Compound 74] | 5600 nM | 320 nM
CC[C@H](NC(=O)c1cc(-c2cc(C(=O)NC3COC3)c3nc(N)nn3c2)cs1)c1ccccc1 [Compound 75] | 4200 nM | 67 nM
CC[C@H](NC(=O)c1cc(-c2cc(C(=O)NC(C)C)c3nc(N)nn3c2)cs1)c1ccccc1 [Compound 76] | 87 nM | 5.15 nM
CC[C@H](NC(=O)c1cc(-c2cc(C(=O)N[C@@H](C)CO)c3nc(N)nn3c2)cs1)c1ccccc1 [Compound 77] | 36 nM | 1.8 nM
C[C@H](NC(=O)c1cc(-c2cc(C(=O)NC(C)(C)CO)c3nc(N)nn3c2)cs1)c1ccccc1 [Compound 79] | 210 nM | 11.5 nM
CC(C)(CO)NC(=O)c1cc(-c2csc(C(=O)NCc3ccc(F)cc3)c2)cn2nc(N)nc12 [Compound 80] | 130 nM | 56.5 nM
